Source: patent US4315935A, “N,N'-Bis[substituted-1,2,3,4-tetrahydroisoquinolinolyl]disulfonylimides and antiallergic compositions and method of use” (SmithKline Corporation, priority 1980, dated 1982)

System: SRS-A
Assay: inhibition of SRS-A induced contraction of guinea pig ileum
Format: cell-based
Details: Cavia porcellus, 0.25 h; for inhibition at 5 µM: read-out: […], compound concentration 5 × 10^-6 M, SRS-A agonist 40 μg/ml, read-out: PERCENTAGE ANTAGONISM; for inhibition at 1 µM: read-out: […], compound concentration 1 × 10^-6 M, SRS-A agonist 40 μg/ml, read-out: PERCENTAGE ANTAGONISM
Experimental: The SRS-A antagonist activity of the compounds of this invention is measured by the ability of the active medicament to inhibit SRS-A induced contraction of guinea pig ileum. In this test system, sections of ileum are resected from guinea pigs and placed in 5 ml. tissue baths containing a modified Tyrode's solution. One end of the tissue is fixed to a glass tissue holder, the other is connected to a force-displacement transducer and the tissue is placed under a tension of 500 mg. Isometric tissue contractions are recorded on a six channel polygraph. Baths are constantly aerated with 95% O2 -5% CO2. After a 20 minute stabilization period a concentration of the appropriate agonist which provides a contraction height of 60-80% of the maximum obtainable to that agonist (as determined from full sequential concentration--response curves in separate experiments) is added to the tissue bath and the response recorded. The procedure is repeated until reproducible responses are obtained. For most agonists, two applications in rapid succession, followed 15 minutes later by a third, is sufficient to establish reproducibility. Experimental tissues are incubated with the selected concentration of the test compounds for 15 minutes. Experimental and control tissues are subjected to 5 bath changes during the incubation interval. Changes in bath fluid during the incubation period are helpful in insuring the reproducibility of tissue responses to the agonist. The same concentration of the agonist is reapplied in the presence of the test compound and the response registered and compared with controls. Percent inhibition produced by the test compound is calculated by substracting the mean percentage change in control tissue from the means percentage change in tissues exposed to the test compound. Additional compounds are then evaluated as long as the tissue remains reproducibly responsive to the agonist. Six tissues obtained from 6 animals are used simultaneously--3 controls and 3 experimental.
The compounds of this invention tested at concentrations of from 5×10^-5 M to 1×10^-6 M produce marked antagonism of partially purified slow reacting substance of anaphylaxis obtained from guinea pig lung. The agonist is employed at a concentration of 40 μg/ml. Representative of this effect, tabulated below are a number of the claimed compounds and percentage antagonism of SRS-A at various compound concentrations.

| Structure (SMILES) | inhibition at 5 µM | inhibition at 1 µM |
| --- | --- | --- |
| O=S(=O)(Nc1cccc(Cl)c1)c1ccc2c(c1)CN(S(=O)(=O)NS(=O)(=O)N1CCc3ccc(S(=O)(=O)Nc4cccc(Cl)c4)cc3C1)CC2 [Compound 1, N,N'-bis[7-(3-chlorobenzeneaminosulfonyl)-1,2,3,4-tetrahydroisoquinolyl]disulfonylimide] | 67.5% |  |
| O=S(=O)(Nc1ccccc1)c1ccc2c(c1)CN(S(=O)(=O)NS(=O)(=O)N1CCc3ccc(S(=O)(=O)Nc4ccccc4)cc3C1)CC2 [Compound 2] | 42.3% |  |
| O=S(=O)(Nc1ccccc1Cl)c1ccc2c(c1)CN(S(=O)(=O)NS(=O)(=O)N1CCc3ccc(S(=O)(=O)Nc4ccccc4Cl)cc3C1)CC2 [Compound 3] | 24.8% |  |
| O=S(=O)(Nc1ccc(Cl)cc1)c1ccc2c(c1)CN(S(=O)(=O)NS(=O)(=O)N1CCc3ccc(S(=O)(=O)Nc4ccc(Cl)cc4)cc3C1)CC2 [Compound 4] | 51.2% |  |
| O=S(=O)(Nc1cccc(Br)c1)c1ccc2c(c1)CN(S(=O)(=O)NS(=O)(=O)N1CCc3ccc(S(=O)(=O)Nc4cccc(Br)c4)cc3C1)CC2 [Compound 5] | 68% | 54% |
| O=S(=O)(Nc1ccc(Br)cc1)c1ccc2c(c1)CN(S(=O)(=O)NS(=O)(=O)N1CCc3ccc(S(=O)(=O)Nc4ccc(Br)cc4)cc3C1)CC2 [Compound 6] | 42.2% |  |
| O=S(=O)(Nc1cccc(C(F)(F)F)c1)c1ccc2c(c1)CN(S(=O)(=O)NS(=O)(=O)N1CCc3ccc(S(=O)(=O)Nc4cccc(C(F)(F)F)c4)cc3C1)CC2 [Compound 7] | 65% |  |
| O=S(=O)(Nc1ccc(C(F)(F)F)cc1)c1ccc2c(c1)CN(S(=O)(=O)NS(=O)(=O)N1CCc3ccc(S(=O)(=O)Nc4ccc(C(F)(F)F)cc4)cc3C1)CC2 [Compound 8] | 57% | 49% |
| O=[N+]([O-])c1cccc(NS(=O)(=O)c2ccc3c(c2)CN(S(=O)(=O)NS(=O)(=O)N2CCc4ccc(S(=O)(=O)Nc5cccc([N+](=O)[O-])c5)cc4C2)CC3)c1 [Compound 9] | 36% |  |
| O=S(=O)(Nc1ccc(Cl)c(Cl)c1)c1ccc2c(c1)CN(S(=O)(=O)NS(=O)(=O)N1CCc3ccc(S(=O)(=O)Nc4ccc(Cl)c(Cl)c4)cc3C1)CC2 [Compound 11] | 56% | 49% |
| O=S(=O)(Nc1ccc(Cl)c(C(F)(F)F)c1)c1ccc2c(c1)CN(S(=O)(=O)NS(=O)(=O)N1CCc3ccc(S(=O)(=O)Nc4ccc(Cl)c(C(F)(F)F)c4)cc3C1)CC2 [Compound 12] | 91.5% | 41% |
| Cc1ccc(NS(=O)(=O)c2ccc3c(c2)CN(S(=O)(=O)NS(=O)(=O)N2CCc4ccc(S(=O)(=O)Nc5ccc(C)c(C)c5)cc4C2)CC3)cc1C [Compound 13] | 62% |  |
| Cc1ccc(NS(=O)(=O)c2ccc3c(c2)CN(S(=O)(=O)NS(=O)(=O)N2CCc4ccc(S(=O)(=O)Nc5ccc(C)c(Cl)c5)cc4C2)CC3)cc1Cl [Compound 14] | 84% |  |
| CN(c1ccc(Cl)cc1)S(=O)(=O)c1ccc2c(c1)CN(S(=O)(=O)NS(=O)(=O)N1CCc3ccc(S(=O)(=O)N(C)c4ccc(Cl)cc4)cc3C1)CC2 [Compound 15] | 57.3% |  |
| O=S(=O)(Nc1cccc(Cl)c1)c1c(Cl)ccc2c1CN(S(=O)(=O)NS(=O)(=O)N1CCc3ccc(Cl)c(S(=O)(=O)Nc4cccc(Cl)c4)c3C1)CC2 [Compound 23, N,N'-Bis[7-Chloro-8-(3-Chlorobenzeneaminosulfonyl)-1,2,3,4-Tetrahydroisoquinolyl]disulfonylimide] | 48% |  |
| O=S(=O)(Nc1cccc(Cl)c1)c1ccc(Cl)c2c1CCN(S(=O)(=O)NS(=O)(=O)N1CCc3c(S(=O)(=O)Nc4cccc(Cl)c4)ccc(Cl)c3C1)C2 [Compound 30, N,N'-bis[8-chloro-5-(3-chlorobenzeneaminosulfonyl)-1,2,3,4-tetrahydroisoquinolyl]disulfonylimide] | 63% |  |
